Measurements as given in paper PMC9227918 (Toxins, 2022).

Assays:
Assay type in all cases: in vitro ADME
[1] = Hepatic phase I metabolism, incubation with horse liver microsomes and NADPH-regenerating system; conditions: for identified pI metabolites: horse liver microsomes 5 mg/mL, 0.04 mg/mL PSD, 90 min, 37 °C, HPLC-Orbitrap-HRMS; for extent of pI transformation / metabolite formation: horse microsomes compared with human microsomes
[2] = Hepatic phase II metabolism (glucuronidation), human liver microsomes with UDPGA
[3] = Hepatic phase I metabolism, incubation with human liver microsomes and NADPH-regenerating system; conditions: for main pI metabolite: human liver microsomes 5 mg/mL, 0.04 mg/mL PSD, 90 min, 37 °C, HPLC-DAD-Orbitrap-HRMS
[4] = Hepatic phase II metabolism (sulfation), horse liver cytosol with PAPS; conditions: horse cytosol compared with human cytosol (Figure 7b)
[5] = Hepatic phase II metabolism (sulfation), human liver cytosol with PAPS; conditions: HPLC-QTOF-HRMS
[6] = Hepatic phase II metabolism (glucuronidation), horse liver microsomes with UDPGA; conditions: UDPGA 0.3 mM, 0.02 mg/mL PSD, 90 min, HPLC-Orbitrap-HRMS

| Structure (SMILES) | identified pI metabolites [1] | main pI metabolite [3] | extent of pI transformation / metabolite formation [1] | other results |
| --- | --- | --- | --- | --- |
| CC(=O)O[C@@H]1[C@H](OC(C)=O)C[C@@]2(C)[C@@H](CC[C@@H](C)[C@]23Cc2c(O)cc(CO)c(C=O)c2O3)C1(C)C [STBON D, stachybonoid D] | only the metabolites STBON D [+O–H2] and STBON D [+O] were identified | oxidized metabolites ([+O]) |  | conversion in glucuronidation experiments ([2]; human microsomes compared with horse microsomes, 90 min (Figure 7a)): higher signals for STBON D +GlcA and lower signals of the respective parental compound |
| C[C@@H]1CC[C@H]2C(C)(C)[C@H](O)CC[C@]2(C)[C@@]12Cc1c(O)cc(CO)c(C=O)c1O2 [L-671, L-671,667] | L-671 [+O2–H2] could not be detected |  |  | conversion in sulfation experiments [4]: Opposite observations; abundance of sulfate signals among the PSDs [5]: most abundant sulfate signals; number of signals in the XIC of the sulfate (isomers) [5]: two signals; variation in potential pI metabolites ([3]; HPLC-Orbitrap-HRMS experiments, compared among the four PSDs): largest variation in potential pI metabolites |
| C[C@@H]1CC[C@H]2C(C)(C)[C@H](O)CC[C@]2(C)[C@@]12Cc1c(O)cc(C=O)c(C=O)c1O2 [STDIAL, stachybotrydial] | all but the desaturated metabolites were formed | STDIAL [+O–H4] | comparable to human microsomes |  |
| C[C@@H]1CC[C@H]2C(C)(C)[C@H](O)CC[C@]2(C)[C@@]12Cc1c(O)cc3c(c1O2)CNC3=O [STLAC, stachybotrylactam] | all but the desaturated metabolites were formed | oxidized metabolites ([+O]) | comparable to human microsomes |  |
| CC(=O)O[C@@H]1[C@H](OC(C)=O)C[C@@]2(C)[C@@H](CC[C@@H](C)[C@]23Cc2c(OC4O[C@H](C(=O)O)[C@@H](O)[C@H](O)[C@H]4O)cc(CO)c(C=O)c2O3)C1(C)C (stereo partly shown) [STBON D +GlcA] |  |  |  | glucuronide (+GlcA) formation ([2]; human microsomes, UDPGA 0.3 mM, 0.02 mg/mL PSD, 90 min, HPLC-Orbitrap-HRMS): identified; glucuronide (+GlcA) formation [6]: identified |
